Starred links: 1 amine or outer side, 2 acyl side, 3 side chain; linkers in the order of their positions; H or OH if unused. Non-standard residues stand in square brackets, D forms with d. Residues, ends and D or L forms follow the SMILES beside them. *: point of attachment. Dolaproine = CO[C@@H]([C@@H]1CCCN1)[C@@H](C)C(=O)O; Dil = CC[C@H](C)[C@H](NC)[C@@H](CC(=O)O)OC; PABC = O=C(OCc1ccc(N[*:1])cc1)[*:2]; X1 = O=C(CCCC(=O)*)ON1C(=O)CCC1=O; X2 = C[C@@H](N*)[C@@H](O)c1ccccc1; Cit = NC(=O)NCCC[C@H](N)C(=O)O; NMeV = CN[C@H](C(=O)O)C(C)C

In general, TGI refers to how far tumour growth fell short of that in controls. A lower TGI goes with little slowing of growth.

What all share (format): in vivo, Mus musculus
The subject of series [1] is CTG-0363. Description: Champions TumorGraft NSCLC PDX efficacy, model CTG-0363. How it is done:
(§1) Mice were implanted subcutaneously into the left flank with tumor fragments from one of the various models. After tumors grew to an average of 150-300 mm^3, mice were treated by IV administration Q7Dx4 (n=2) with vehicle or 3 mg/kg of BT5528. Effects on tumor growth were evaluated by measuring percent tumor growth inhibition (% TGI), and the number of complete responders (CR), partial responders (PR), and tumor-free survivors (TFS). Tolerability was assessed by body weight loss, lethality, and clinical signs of adverse treatment-related side effects. Tumor volumes and body weights were measured twice a week.
(§2) Dosing solutions of BT5528 […] were pre-formulated. These dosing solutions were stored at −80° C. in the dark. On each day of dosing, a frozen aliquot of each test agent was thawed, stored at 2-8° C. and used for dosing.
(§3) The animals used in this study are described below: • Species: Mus musculus • Strain: Athymic Nude-Foxn1^nu (immune-compromised) • Source: Envigo (Indianapolis, Ind., USA) • Number of animals per group: 2 • Age and sex: At least 6-8 weeks of age at start of dosing, female • Weight: At least 18 grams at start of dosing • Acclimation period: 3 days
(§4) Stock mice were implanted with tumor cells from Champions TumorGraft® models CTG-0160, CTG-0170, CTG-0178, CTG-0192, CTG-0363, CTG-0808, CTG-0838, CTG-0848, CTG-1212, CTG-1502, CTG-1535, CTG-2011, CTG-2393, CTG-2539 or CTG-2540. After the tumors reached 1000-1500 mm^3, they were harvested and the tumor fragments (approximately 5×5×5 mm^3) were implanted SC in the left flank of the female study mice. Each animal was implanted with a specific passage lot and documented. Tumor growth was monitored twice a week using digital calipers and the tumor volume (TV) was calculated using the formula (0.52×[length×width^2]). When the TV reached an average volume of 150-300 mm^3, animals were matched by tumor size and assigned into Vehicle Control and treatment groups (n=2/group) and dosing was initiated on Day 0. After the initiation of dosing on Day 0, animals were weighed twice per week using a digital scale and TV was measured twice per week and also on the final day of study. The study was completed when the mean tumor volume of Vehicle Control reached 1500 mm^3 or up to Day 60, whichever occurred first.
(§5) Beginning on Day 0, animals were observed daily and weighed twice weekly using a digital scale; data including individual and mean gram weights, mean percent weight change versus Day 0 (% vD0) were recorded for each group and % vD0 plotted at study completion. […] Treatment resulting in a mean % vD0>20% and/or >10% mortality was considered above the maximum tolerated dose. Maximum mean % vD0 (weight nadir) for each treatment group was reported at study completion.
(§6) Inhibition of tumor growth was determined by calculating the percent TGI (100%×[1−(final MTV−initial MTV of a treated group)/(final MTV−initial MTV of the control group)]). Treatment started on Day 0.
(§7) Additional endpoints used to evaluate efficacy were: the number of complete responders (CR), partial responders (PR), and tumor-free survivors (TFS). PRs were considered exclusive of CRs, as were TFS.
(§8) Statistical analyses of anti-tumor efficacy were performed using one-way ANOVA followed by Dunnett's multiple comparisons test (GraphPad Prism version 8.2.0). Significant p-values=<0.05.
(§9) Animals were dosed according to the schedule on Table 7-1. The study was terminated on Day 28.

Series [2] has as its system CTG-0848. Description: Champions TumorGraft NSCLC PDX efficacy, model CTG-0848. The method, then:
as §1, §2, §3, §4, §5, §6, §7, §8
Animals were dosed according to the schedule on Table 7-1. The study was terminated on Day 27.

Series [3] deals with CTG-2540. Description: Champions TumorGraft NSCLC PDX efficacy, model CTG-2540. How it is done: as §1, §2, §3, §4, §5, §6, §7, §8, §9
Where [4] appears, read: CTG-0363, 3 mg/kg IV Q7Dx4, Day 0-28.
[5] abbreviates: CTG-0848, 3 mg/kg IV Q7Dx4, Day 0-27.
[6] abbreviates: CTG-2540, 3 mg/kg IV Q7Dx4, Day 0-28.

For the compound `CC[C@H](C)[C@@H]([C@@H](CC(=O)N1CCC[C@H]1[C@H](OC)[C@@H](C)C(=O)N[C@H](C)[C@@H](O)c1ccccc1)OC)N(C)C(=O)[C@@H](NC(=O)[C@H](C(C)C)N(C)C(=O)OCc1ccc(NC(=O)[C@H](CCCNC(N)=O)NC(=O)[C@@H](NC(=O)CCCC(=O)ON2C(=O)CCC2=O)C(C)C)cc1)C(C)C` [BT5528] (X1-V[Cit][PABC][NMeV]V[Dil][Dolaproine]-X2), the “mean body weight loss” value in series [1] (3 mg/kg IV Q7Dx4) and in series [3] (3 mg/kg IV Q7Dx4) was “no mean body weight loss” each time. Besides, the “MTV (mean tumor volume)” value worked out at 1609±18 mm^3 in series [1] (3 mg/kg IV Q7Dx4, Day 28); 512±113 mm^3 in series [2] (3 mg/kg Q7Dx4, Day 27); 692±156 mm^3 in series [3] (3 mg/kg IV Q7Dx4, Day 28). The TGI in series [1] (3 mg/kg IV Q7Dx4, Day 28) amounted to 26%; in series [2] (3 mg/kg Q7Dx4, Day 27), 56%; in series [3] (3 mg/kg IV Q7Dx4, Day 28), 75%. Besides, the “# CR (complete responders)” value in series [1] (setting [4]), in series [2] (setting [5]) and in series [3] (setting [6]) was 0/0/0 in each case. In addition, the “# PR (partial responders)” value in series [1] (setting [4]), in series [2] (setting [5]) and in series [3] (setting [6]) was 0/0/0 in each case. Also, the “# TFS (tumor-free survivors)” value in series [1] (setting [4]), in series [2] (setting [5]) and in series [3] (setting [6]) was 0/0/0 each time. Besides, the “% TGI” value turned out to be 26% in series [1] (CTG-0363, 3 mg/kg IV Q7Dx4, Day 28); 56% in series [2] (CTG-0848, 3 mg/kg IV Q7Dx4, Day 27); 75% in series [3] (CTG-2540, 3 mg/kg IV Q7Dx4, Day 28). Moreover, the “Day 28 Tumor Volume Mean TV ± SEM” value in series [1] (CTG-0363, BT5528 3 mg/kg IV Q7Dx4, Day 28, n=2) stood at 1609 ± 18 mm^3; in series [3] (CTG-2540, BT5528 3 mg/kg IV Q7Dx4, Day 28, n=2) it was 692 ± 156 mm^3. Moreover, in series [2] (CTG-0848, BT5528 3 mg/kg IV Q7Dx4, Day 27, n=2), the “Day 27 Tumor Volume Mean TV ± SEM” value is 512 ± 113 mm^3.
